Data: the pKa sets of Baltruschat and Czodrowski (2020)

Compound	pKa
FC1(F)CCNCC1	8.5
NCC(F)F	7.3
CN(C)CCCCc1ccc(C(C)(C)C)cc1	9.9
CN1CCCCC1	10.1
CN(C)CC(C)(C)CCc1ccc(C(C)(C)C)cc1	9.4
FC1CCCNC1 (stereo not drawn)	9.3
FC(Cc1c[nH]c2ccc(-n3cnnc3)cc12)CN1CCC(Cc2ccccc2)CC1 (stereo not drawn)	8.7
NCCCF	9.9
NCCCC(F)(F)F	9.7
CN(C)C	9.8
CN(C)CCCC(C)(C)c1ccc(C(C)(C)C)cc1	9.8
CN(C)C(C)(C)CCCc1ccc(C(C)(C)C)cc1	10.4
CC(=O)N1CCNCC1	7.9

Other lines, results leading:

pKa	Compound
7.4	FC1(F)CCCNC1
9.7	c1ccc(CC2CCN(CCCc3c[nH]c4ccc(-n5cnnc5)cc34)CC2)cc1
10.7	CCCCN
10.2	CCCCN(C)C
8.8	FC1(Cc2ccccc2)CCN(CCCc2c[nH]c3ccc(-n4cnnc4)cc23)CC1
8.7	NCCC(F)(F)F
9.4	FC1CCNCC1
4.8	CN(C)CC(F)(F)F
6.7	FC(F)(Cc1c[nH]c2ccc(-n3cnnc3)cc12)CN1CCC(Cc2ccccc2)CC1
10.2	CCN(C)C
